# Assay results reported in ChEMBL document CHEMBL4393697, “Lipophilic efficient phenylthiazoles with potent undecaprenyl pyrophosphatase inhibitory activity” (Eur J Med Chem, 2019).
# Tests used:
# [1] = Solubility of compound in PBS after 2 hrs by turbidity based absorbance analysis; assay type: physicochemical
# J774 = assay: Cytotoxicity against mouse J774 assessed as reduction in cell viability at 16 ug/ml incubated for 24 hrs by MTS assay; assay type: cell-based; conditions: j774, 24 h
# Staphylococcus aureus = assay: Antibacterial activity against methicillin resistant Staphylococcus aureus USA400 assessed as reduction in bacterial cell growth incubated for 18 to 20 hrs by broth microdilution method; assay type: functional
# Acinetobacter baumannii [2] = assay: Bactericidal activity against Acinetobacter baumannii ATCC 19606 assessed as reduction in bacterial cell growth incubated for 18 to 20 hrs followed by re-plating on tryptic soy agar plates at 37 degC for 18 hrs by broth microdilution assay; assay type: functional
# Escherichia coli [3] = assay: Antibacterial activity against Escherichia coli JW55031 harboring deltatolC mutant assessed as reduction in bacterial cell growth incubated for 18 to 20 hrs by broth microdilution method; assay type: functional
# Pseudomonas aeruginosa [4] = assay: Bactericidal activity against Pseudomonas aeruginosa ATCC 15442 assessed as reduction in bacterial cell growth incubated for 18 to 20 hrs followed by re-plating on tryptic soy agar plates at 37 degC for 18 hrs by broth microdilution assay; assay type: functional
# Escherichia coli [5] = assay: Antibacterial activity against Escherichia coli BW25113 assessed as reduction in bacterial cell growth incubated for 18 to 20 hrs by broth microdilution method; assay type: functional
# Escherichia coli [6] = assay: Bactericidal activity against Escherichia coli JW55031 harboring deltatolC mutant assessed as reduction in bacterial cell growth incubated for 18 to 20 hrs followed by re-plating on tryptic soy agar plates at 37 degC for 18 hrs by broth microdilution assay; assay type: functional
# Klebsiella pneumoniae [7] = assay: Antibacterial activity against Klebsiella pneumoniae BAA-1706 assessed as reduction in bacterial cell growth incubated for 18 to 20 hrs by broth microdilution method; assay type: functional
# Klebsiella pneumoniae [8] = assay: Bactericidal activity against Klebsiella pneumoniae BAA-1706 assessed as reduction in bacterial cell growth incubated for 18 to 20 hrs followed by re-plating on tryptic soy agar plates at 37 degC for 18 hrs by broth microdilution assay; assay type: functional
# Pseudomonas aeruginosa [9] = assay: Antibacterial activity against Pseudomonas aeruginosa ATCC 15442 assessed as reduction in bacterial cell growth incubated for 18 to 20 hrs by broth microdilution method; assay type: functional
# Escherichia coli [10] = assay: BActericidal activity against Escherichia coli BW25113 assessed as reduction in bacterial cell growth incubated for 18 to 20 hrs followed by re-plating on tryptic soy agar plates at 37 degC for 18 hrs by broth microdilution assay; assay type: functional
# Acinetobacter baumannii [11] = assay: Antibacterial activity against Acinetobacter baumannii ATCC 19606 assessed as reduction in bacterial cell growth incubated for 18 to 20 hrs by broth microdilution method; assay type: functional
smiles,measurement,setting,value
C/C(=N\NC(=N)N)c1sc(-c2ccc(C#Cc3ccccc3)cc2)nc1C,solubility kinetic at 2 h,[1],2.5 µM
same,Activity,J774,Toxic
CCOC(=O)C#Cc1ccc(-c2nc(C)c(/C(C)=N/NC(=N)N)s2)cc1,MIC,Staphylococcus aureus,> 64 µg/mL
C/C(=N\NC(=N)N)c1sc(-c2ccc(C#Cc3ccsc3)cc2)nc1C,MIC,Staphylococcus aureus,> 64 µg/mL
CC[C@H]1OC(=O)[C@H](C)[C@@H](O[C@H]2C[C@@](C)(OC)[C@@H](O)[C@H](C)O2)[C@H](C)[C@@H](O[C@@H]2O[C@H](C)C[C@H](N(C)C)[C@H]2O)[C@](C)(O)C[C@@H](C)C(=O)[C@H](C)[C@@H](O)[C@]1(C)O [ERYTHROMYCIN],MBC,Acinetobacter baumannii [2],16 µg/mL
same,MIC,Escherichia coli [3],1 µg/mL
same,MBC,Pseudomonas aeruginosa [4],> 64 µg/mL
same,MIC,Escherichia coli [5],32 µg/mL
same,MBC,Escherichia coli [6],2 µg/mL
same,MIC,Klebsiella pneumoniae [7],64 µg/mL
same,MBC,Klebsiella pneumoniae [8],> 64 µg/mL
same,MIC,Pseudomonas aeruginosa [9],> 64 µg/mL
same,MBC,Escherichia coli [10],> 64 µg/mL
same,MIC,Acinetobacter baumannii [11],8 µg/mL
C/C(=N\NC(=N)N)c1sc(-c2ccc(C#Cc3ccc(C)cc3)cc2)nc1C,MIC,Staphylococcus aureus,32 µg/mL
C/C(=N\NC(=N)N)c1sc(-c2ccc(C#Cc3cc(O)ccc3C)cc2)nc1C,MIC,Staphylococcus aureus,> 64 µg/mL
C/C(=N\NC(=N)N)c1sc(-c2ccc(C#Cc3ccccc3O)cc2)nc1C,MIC,Staphylococcus aureus,> 64 µg/mL
C/C(=N\NC(=N)N)c1sc(-c2ccc(C#Cc3ccc(C(=O)O)c(C)c3)cc2)nc1C,MIC,Staphylococcus aureus,> 64 µg/mL
C/C(=N\NC(=N)N)c1sc(-c2ccc(C#Cc3ccc(C(N)=O)cc3)cc2)nc1C,MIC,Staphylococcus aureus,> 64 µg/mL
C/C(=N\NC(=N)N)c1sc(-c2ccc(C#Cc3ccccc3N)cc2)nc1C,MIC,Staphylococcus aureus,> 64 µg/mL
CCCCc1ccc(-c2nc(C)c(/C(C)=N/NC(=N)N)s2)cc1,solubility kinetic at 2 h,[1],65 µM
COC(=O)c1ccccc1C#Cc1ccc(-c2nc(C)c(/C(C)=N/NC(=N)N)s2)cc1,MIC,Staphylococcus aureus,16 µg/mL
COc1cccc(C#Cc2ccc(-c3nc(C)c(/C(C)=N/NC(=N)N)s3)cc2)c1,MIC,Staphylococcus aureus,4 µg/mL
C/C(=N\NC(=N)N)c1sc(-c2ccc(C#CC3CCCCC3)cc2)nc1C,solubility kinetic at 2 h,[1],2.7 µM
C/C(=N\NC(=N)N)c1sc(-c2ccc(C#Cc3cccc([N+](=O)[O-])c3)cc2)nc1C,MIC,Staphylococcus aureus,64 µg/mL
